Consider two compounds from PMC5362899, “Structural insights into the nucleotide base specificity of P2X receptors” (Scientific Reports, 2017).

Assay [1] deals with T1, rat P2X4 rT186A mutant (Rattus norvegicus, UniProt P51577, T186A).
T1 construct: rat P2X4 (NP_113782.1; WT and mutants) were transcribed from pGEMHE plasmids; expressed in transfected cells; host or cells: Xenopus laevis oocytes injected with cRNA from pGEMHE
T1 sequence (P51577 1-388 T186A): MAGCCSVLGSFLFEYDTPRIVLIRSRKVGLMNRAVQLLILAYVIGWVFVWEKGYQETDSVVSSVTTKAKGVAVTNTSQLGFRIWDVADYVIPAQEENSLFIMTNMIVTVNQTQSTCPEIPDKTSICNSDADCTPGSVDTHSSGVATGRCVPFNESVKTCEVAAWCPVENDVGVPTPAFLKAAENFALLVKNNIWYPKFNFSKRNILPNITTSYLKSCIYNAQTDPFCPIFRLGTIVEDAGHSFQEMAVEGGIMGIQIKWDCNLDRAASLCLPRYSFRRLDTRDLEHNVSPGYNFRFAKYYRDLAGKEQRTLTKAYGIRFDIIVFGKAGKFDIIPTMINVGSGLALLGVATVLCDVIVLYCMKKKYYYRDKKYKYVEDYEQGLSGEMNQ
Briefly: Two-Electrode Voltage Clamp recording, rat P2X4 T186A mutant in Xenopus oocytes. The settings on record: 3 mM ATP, 3 mM CTP (Fig. S3). It counts as cell-based. From the text: (§1) To further investigate the functional roles of the residues involved in the base recognition, T189 and R143, we performed an electrophysiological analysis with the rat P2X4, since its electrophysiological properties have been well established. We first assessed the functional role of T189 in zfP2X4 and introduced mutations at the equivalent residue of the rat P2X4 to create three mutants (^rT186A, ^rT186V and ^rT186S; the superscript “r” means rat P2X4). […] Therefore, we examined the ^rWT and the ^rT186S mutant.
(§2) The cRNAs encoding zebrafish P2X4 (NP_705939; WT) and rat P2X4 (NP_113782.1; WT and mutants) were transcribed from pGEMHE plasmids, using a mMessage mMachine® T7 ULTRA kit (Ambion, Huntingdon, Cambridgeshire, UK). Xenopus laevis oocytes were prepared, and RNA (100 ng for zebrafish P2X4, and 20 ng for rat P2X4) was injected into the oocytes. The oocytes were incubated at 18 °C in Barth’s solution, containing 88 mM NaCl, 1 mM KCl, 2.4 mM NaHCO3, 10 mM HEPES, 0.33 mM Ca(NO3)2, 0.41 mM CaCl2, and 0.82 mM MgSO4, pH 7.4, supplemented with 50 μg/ml gentamicin, and were used for recording after 2–3 days. […] Oocytes were held at −70 mV with a bath-clamp amplifier (OC-725C, Warner Co., USA), and macroscopic currents were recorded and analyzed using the pClamp 10 software (Molecular Devices, USA)[33][34]. We measured n = 4 for zebrafish P2X4 data and n = 7–9 for rat P2X4 data. […]
On the technique in general: In two-electrode clamp one electrode senses voltage and the other passes current.

Assay [2] concerns the target T2, rat P2X4 rT186V mutant (Rattus norvegicus, UniProt P51577, T186V).
T2 construct: rat P2X4 (NP_113782.1; WT and mutants) were transcribed from pGEMHE plasmids; expressed in transfected cells; host or cells: Xenopus laevis oocytes injected with cRNA from pGEMHE
T2 sequence (P51577 1-388 T186V): T1 sequence (P51577 1-388 T186A) with A186V
Briefly: Two-Electrode Voltage Clamp recording, rat P2X4 T186V mutant in Xenopus oocytes. It counts as cell-based. Particulars: 3 mM ATP, 3 mM CTP (Fig. S3).
Description: as §1, §2

The structures appear in SMILES notation. Positions count from the first letter of the chain named.

`Nc1ncnc2c1ncn2[C@@H]1O[C@H](COP(=O)(O)OP(=O)(O)OP(=O)(O)O)[C@@H](O)[C@H]1O` [ATP, Adenosine 5-triphosphate]: the nucleotide-evoked currents entry in assay [1] is “no ATP- and CTP-evoked currents were detected”; in assay [2], “no ATP- and CTP-evoked currents were detected”.

Turning to `Nc1ccn([C@@H]2O[C@H](COP(=O)(O)OP(=O)(O)OP(=O)(O)O)[C@@H](O)[C@H]2O)c(=O)n1` [CTP], the nucleotide-evoked currents result is “no ATP- and CTP-evoked currents were detected” in assay [1]; “no ATP- and CTP-evoked currents were detected” in assay [2].
